Patent US20260325473A1, “N-Beta-Hydroxybutyryl-Amino Acids and Related Compositions and Methods” (The Board of Trustees of the Leland Stanford Junior …, priority 2023, published 2026)

Assays:
CNDP2 [1] = molecular target: T1, CNDP2 (Mus musculus, UniProt Q9D1A2); assay: Tissue enzyme activity, WT or CNDP2-KO mouse tissue lysates; assay type: biochemical; conditions: role: product; for synthesis activity in WT kidney and gut: 1 h, 37° C
T1 sequence (Q9D1A2 1-475): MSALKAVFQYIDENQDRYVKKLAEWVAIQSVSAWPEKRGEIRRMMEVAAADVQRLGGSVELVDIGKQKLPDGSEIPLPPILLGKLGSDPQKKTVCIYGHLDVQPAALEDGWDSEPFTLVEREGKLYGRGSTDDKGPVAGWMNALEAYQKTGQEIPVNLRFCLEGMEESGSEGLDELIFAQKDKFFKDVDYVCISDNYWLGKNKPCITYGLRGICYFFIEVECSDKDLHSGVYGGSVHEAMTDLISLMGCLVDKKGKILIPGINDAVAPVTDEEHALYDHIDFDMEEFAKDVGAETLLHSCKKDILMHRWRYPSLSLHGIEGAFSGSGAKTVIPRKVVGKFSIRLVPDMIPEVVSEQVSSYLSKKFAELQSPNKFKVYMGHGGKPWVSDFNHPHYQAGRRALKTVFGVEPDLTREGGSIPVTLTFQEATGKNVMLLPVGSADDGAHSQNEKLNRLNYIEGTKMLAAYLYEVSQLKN
Description: Tissue enzyme activity assays. Mouse tissues were mixed with cold PBS and homogenized using a Benchmark BeadBlaster Homogenizer at 4 °C. Protein concentrations were adjusted and the resulting crude was filtered through a 0.45-μm filter to remove insoluble materials. The in vitro reactions were conducted in Eppendorf tubes with 200 μg protein and incubation with the corresponding substrates at 37° C. for 1 hour. After that time, 10 μl of HCl and 400 μl of ethyl acetate were added in the BHB and lactate reactions and the samples were vortexed for 30 s. Reactions were centrifuged at 4° C. for 10 min at 15,000 r.p.m. and total of 300 μl from the top layer was transferred to a new Eppendorf tube and dried down under a stream of nitrogen. The residue was re-suspended in 100 μl of an 2:1:1 mixture of acetonitrile: methanol: water. The mixture was centrifuged at 4° C. for 10 min at 15,000 r.p.m. and the supernatant was transferred to a LC-MS vial. For carnosine reactions, the reactions were not acidified and were directly quenched with 300 μl of an 2:1:1 mixture of acetonitrile: methanol: water after the 1 h incubation and vortexed for 30 s. The mixture was centrifuged at 4° C. for 10 min at 15,000 r.p.m. and the supernatant was transferred to a LC-MS vial.

CNDP2 [2] = molecular target: T1, CNDP2; assay: In situ live cell enzyme activity assay, CNDP2- or GFP-transfected HEK293T cells; assay type: cell-based; parameters: expressed in transfected cells; host or cells: HEK293T (lysate); conditions: role: product; BHB-treated; conditioned media
Description: Cellular enzyme activity assays. Cells were plated in 12-well plates at 70-80% confluence. The next day, cells were washed two times with PBS and incubated in 0.5 ml serum-free medium. After overnight incubation, 400 μl of medium was removed and 20 μl of 1 M HCl were added to acidify the medium and to protonate keto amino acids. Ethyl acetate (400 μl) was added into each sample and reactions were vortexed for 30 s to extract keto amino acids into the organic layer. Reactions were centrifuged at 4° C. for 10 min at 15,000 r.p.m. and total of 300 μl from the top layer was transferred to a new Eppendorf tube and dried down under a stream of nitrogen. The residue was re-suspended in 150 μl of an 2:1:1 mixture of acetonitrile: methanol: water. The mixture was centrifuged at 4° C. for 10 min at 15,000 r.p.m. and the supernatant was transferred to a LC-MS vial. Cells were kept on ice to collect the lysate. PBS (150 μl) was added into each well and the cells scraped into an Eppendorf tube. This step was repeated again to ensure all cells were collected. Cells were then centrifuged at 4° C. for 10 min at 2,000g and the supernatant removed to obtain the cell pellet. A volume of 150 μl of a 2:1:1 mixture of acetonitrile: methanol:water mixture was used to lyse the cells and precipitate large proteins. […]

[3] = Metabolite quantitation in mouse plasma (QQQ-LC/MS); assay type: in vivo
Description: Preparation of plasma samples for LC-MS analysis. Plasma was collected from mice via a submandibular bleed into lithium heparin tubes (BD, 365985) and immediately transferred onto ice. The blood was centrifuged at 4° C. at 5000 rpm for 5 min and the top layer of plasma was aliquoted and frozen at −80 °C. To extract polar metabolites from plasma for LC-MS analysis, 150 μl of a 2:1 mixture of acetonitrile/methanol was added to 50 μl of plasma. The mixture was centrifuged at 4° C. for 10 min at 15,000 rpm and the supernatant was transferred to a LC-MS vial.
Targeted metabolomics. Targeted measurements were performed using an Agilent 6470 triple quadrupole LC-MS instrument. MS analysis was performed using AJS in negative mode. The AJS source parameters were set as follows: the dry gas temperature was set at 250° C. with a gas flow of 12 l/min and the nebulizer pressure at 25 psi; the sheath gas temperature was set to 300° C. with the sheath gas flow set at 12 l/min; and the capillary voltage was set to 3,500 V. Separation of polar metabolites was performed as described above in the ‘Untargeted measurements of metabolites by LC-MS’ section. Multiple reaction monitoring was performed for the indicated metabolites with the listed dwell times, fragmentor voltage, collision energies, cell accelerator voltages and polarities. Quantification of the endogenous metabolite concentrations were performed by generating a standard curve with known concentrations of each metabolite. Metabolite standards were analyzed alongside the plasma samples using the same targeted triple quadrupole LC/MS method. A calibration standard curve generated from the metabolite standard concentrations and total peak areas were used to calculate the concentrations of each endogenous metabolite. The dilution of the plasma during the sample preparation was also taken into account for the quantification.

Row | SMILES | BHB-amino acid synthesis activity in CNDP2-KO kidney and gut (CNDP2 [1]; BHB 20 mM + amino acid 20 mM) | synthesis activity in WT kidney and gut (CNDP2 [1]; BHB 20 mM + amino acid 20 mM) | keto amino acid production in CNDP2-transfected live cells (CNDP2 [2]) | synthesis activity in WT brain, liver, and quadriceps (CNDP2 [1]; BHB 20 mM + Phe 20 mM) | reduction of synthesis activity in CNDP2-KO vs WT, brain (CNDP2 [1]; BHB 20 mM + Phe 20 mM, brain) | reduction of synthesis activity in CNDP2-KO vs WT, gut (CNDP2 [1]; BHB 20 mM + Phe 20 mM, gut) | reduction of synthesis activity in CNDP2-KO vs WT, kidney (CNDP2 [1]; BHB 20 mM + Phe 20 mM, kidney) | reduction of synthesis activity in CNDP2-KO vs WT, liver (CNDP2 [1]; BHB 20 mM + Phe 20 mM, liver) | reduction of synthesis activity in CNDP2-KO vs WT, quadriceps (CNDP2 [1]; BHB 20 mM + Phe 20 mM, quadriceps) | effect of acute treadmill running on level ([3]; 15 min running) | elevation after ketone ester administration ([3]; 30 min after ketone drink, 3 mg/g) | effect of strenuous and prolonged exercise on level ([3]; 30 min strenuous running)
1 | CC(O)CC(=O)N[C@H](C(=O)O)C(C)C (some centres unmarked) [BHB-Val, N-betahydroxybutyryl-valine] | largely abolished | highest BHB-amino acid synthesis activity | robust production | – | – | – | – | – | – | – | – | –
2 | CC(O)CC(=O)N[C@@H](Cc1ccccc1)C(=O)O (some centres unmarked) [BHB-Phe, N-betahydroxybutyryl-phenylalanine] | – | highest BHB-Phe synthesis activity | robust production | lower, but detectable | > 85% | > 95% | > 95% | > 75% | > 60% | unchanged | > 10 fold | robust co-induction
